Source: the kinase profiling compilation of Christmann-Franck et al. (2016)

Key:
Assay in all cases: KINOMEscan competition binding
Details in all cases: compound 1.0 µM
DYRK1A (human) = DYRK1A (human) (UniProt Q13627)
FGFR2 (human) = FGFR2 (human) (UniProt P21802)
MAP2K4 (human) = MAP2K4 (human) (UniProt P45985)
ULK1 (human) = ULK1 (human) (UniProt O75385)
MAP3K3 (human) = MAP3K3 (human) (UniProt Q99759)
VRK2 (human) = VRK2 (human) (UniProt Q86Y07)
AURKA (human) = AURKA (human) (UniProt O14965)
PAK3 (human) = PAK3 (human) (UniProt O75914)
[1] = test system: PIK3CA (human), P42336 [I800L]
MAP2K2 (human) = MAP2K2 (human) (UniProt P36507)
PLK1 (human) = PLK1 (human) (UniProt P53350)
PTK2B (human) = PTK2B (human) (UniProt Q14289)
MATK (human) = MATK (human) (UniProt P42679)
TBK1 (human) = TBK1 (human) (UniProt Q9UHD2)
GRK1 (human) = GRK1 (human) (UniProt Q15835)
MTOR (human) = MTOR (human) (UniProt P42345)
CDK16 (human) = CDK16 (human) (UniProt Q00536)
EPHA3 (human) = EPHA3 (human) (UniProt P29320)
[2] = test system: KIT (human), P10721 [V559D/V654A]
MAP3K7 (human) = MAP3K7 (human) (UniProt O43318)
DCLK2 (human) = DCLK2 (human) (UniProt Q8N568)
PRKG1 (human) = PRKG1 (human) (UniProt Q13976)
MAPK6 (human) = MAPK6 (human) (UniProt Q16659)
CDK13 (human) = CDK13 (human) (UniProt Q14004)
PRKG2 (human) = PRKG2 (human) (UniProt Q13237)
GSK3A (human) = GSK3A (human) (UniProt P49840)
TRPM6 (human) = TRPM6 (human) (UniProt Q9BX84)
MAP4K4 (human) = MAP4K4 (human) (UniProt O95819)
LRRK2 (human) = LRRK2 (human) (UniProt Q5S007)
DSTYK (human) = DSTYK (human) (UniProt Q6XUX3)
NTRK1 (human) = NTRK1 (human) (UniProt P04629)
NEK11 (human) = NEK11 (human) (UniProt Q8NG66)
NEK7 (human) = NEK7 (human) (UniProt Q8TDX7)
[3] = biological target: JAK2 JH1 catalytic (human) (UniProt O60674)
CaMK1 (human) = CaMK1 (human) (UniProt Q14012)
EPHA7 (human) = EPHA7 (human) (UniProt Q15375)
CDK7 (human) = CDK7 (human) (UniProt P50613)
MARK1 (human) = MARK1 (human) (UniProt Q9P0L2)
FYN (human) = FYN (human) (UniProt P06241)
EPHB2 (human) = EPHB2 (human) (UniProt P29323)
PIK3CA (human) = PIK3CA (human) (UniProt P42336)
AKT3 (human) = AKT3 (human) (UniProt Q9Y243)
CDC42BPB (human) = CDC42BPB (human) (UniProt Q9Y5S2)

EPHB2 (human), sequence (P29323 whole entry, looked up): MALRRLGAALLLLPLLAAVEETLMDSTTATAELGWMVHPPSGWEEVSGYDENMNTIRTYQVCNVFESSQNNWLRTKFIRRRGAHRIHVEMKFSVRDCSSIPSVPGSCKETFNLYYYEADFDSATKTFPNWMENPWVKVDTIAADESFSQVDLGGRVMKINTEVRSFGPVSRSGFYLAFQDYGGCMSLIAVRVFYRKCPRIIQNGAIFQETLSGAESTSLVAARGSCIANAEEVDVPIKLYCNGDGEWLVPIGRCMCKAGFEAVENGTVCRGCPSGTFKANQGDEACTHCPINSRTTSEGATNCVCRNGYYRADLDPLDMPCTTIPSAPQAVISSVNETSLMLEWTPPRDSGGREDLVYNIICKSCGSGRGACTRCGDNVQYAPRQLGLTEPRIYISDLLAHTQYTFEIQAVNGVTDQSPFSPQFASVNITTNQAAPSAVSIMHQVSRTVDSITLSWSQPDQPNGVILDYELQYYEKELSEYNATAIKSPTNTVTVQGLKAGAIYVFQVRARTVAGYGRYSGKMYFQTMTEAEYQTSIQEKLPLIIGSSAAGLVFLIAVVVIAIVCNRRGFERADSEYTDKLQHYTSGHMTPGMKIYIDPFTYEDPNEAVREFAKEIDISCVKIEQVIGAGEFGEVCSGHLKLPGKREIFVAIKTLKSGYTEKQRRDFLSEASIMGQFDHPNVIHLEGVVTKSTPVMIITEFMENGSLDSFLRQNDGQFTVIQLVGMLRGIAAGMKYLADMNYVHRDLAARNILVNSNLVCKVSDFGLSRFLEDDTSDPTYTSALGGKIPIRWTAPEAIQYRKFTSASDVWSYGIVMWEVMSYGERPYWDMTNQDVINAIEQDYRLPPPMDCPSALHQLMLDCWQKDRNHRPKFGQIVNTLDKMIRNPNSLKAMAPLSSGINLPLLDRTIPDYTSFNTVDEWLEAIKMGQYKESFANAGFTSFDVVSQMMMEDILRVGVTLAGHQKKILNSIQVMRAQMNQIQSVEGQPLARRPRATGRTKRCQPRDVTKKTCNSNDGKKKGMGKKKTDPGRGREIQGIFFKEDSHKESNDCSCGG
MARK1 (human), sequence (Q9P0L2 whole entry, looked up): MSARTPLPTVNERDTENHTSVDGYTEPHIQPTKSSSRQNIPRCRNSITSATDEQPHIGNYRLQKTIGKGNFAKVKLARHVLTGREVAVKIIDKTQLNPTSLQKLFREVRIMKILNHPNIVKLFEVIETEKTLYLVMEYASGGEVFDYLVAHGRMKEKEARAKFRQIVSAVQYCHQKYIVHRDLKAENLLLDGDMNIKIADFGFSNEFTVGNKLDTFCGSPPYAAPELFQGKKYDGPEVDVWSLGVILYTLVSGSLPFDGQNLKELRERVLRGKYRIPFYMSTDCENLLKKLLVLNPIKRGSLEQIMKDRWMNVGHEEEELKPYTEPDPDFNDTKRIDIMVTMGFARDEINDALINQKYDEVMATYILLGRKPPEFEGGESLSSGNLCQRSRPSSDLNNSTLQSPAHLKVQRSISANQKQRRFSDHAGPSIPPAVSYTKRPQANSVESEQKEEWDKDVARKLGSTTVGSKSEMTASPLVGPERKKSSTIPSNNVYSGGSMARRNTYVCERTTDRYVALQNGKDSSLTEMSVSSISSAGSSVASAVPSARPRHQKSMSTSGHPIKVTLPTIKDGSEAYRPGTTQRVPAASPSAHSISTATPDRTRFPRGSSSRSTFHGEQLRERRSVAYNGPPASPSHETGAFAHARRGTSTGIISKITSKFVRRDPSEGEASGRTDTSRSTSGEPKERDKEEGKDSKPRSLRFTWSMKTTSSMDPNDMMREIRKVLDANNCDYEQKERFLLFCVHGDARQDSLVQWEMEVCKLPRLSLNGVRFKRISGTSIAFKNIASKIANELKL
PRKG2 (human), sequence (Q13237 whole entry, looked up): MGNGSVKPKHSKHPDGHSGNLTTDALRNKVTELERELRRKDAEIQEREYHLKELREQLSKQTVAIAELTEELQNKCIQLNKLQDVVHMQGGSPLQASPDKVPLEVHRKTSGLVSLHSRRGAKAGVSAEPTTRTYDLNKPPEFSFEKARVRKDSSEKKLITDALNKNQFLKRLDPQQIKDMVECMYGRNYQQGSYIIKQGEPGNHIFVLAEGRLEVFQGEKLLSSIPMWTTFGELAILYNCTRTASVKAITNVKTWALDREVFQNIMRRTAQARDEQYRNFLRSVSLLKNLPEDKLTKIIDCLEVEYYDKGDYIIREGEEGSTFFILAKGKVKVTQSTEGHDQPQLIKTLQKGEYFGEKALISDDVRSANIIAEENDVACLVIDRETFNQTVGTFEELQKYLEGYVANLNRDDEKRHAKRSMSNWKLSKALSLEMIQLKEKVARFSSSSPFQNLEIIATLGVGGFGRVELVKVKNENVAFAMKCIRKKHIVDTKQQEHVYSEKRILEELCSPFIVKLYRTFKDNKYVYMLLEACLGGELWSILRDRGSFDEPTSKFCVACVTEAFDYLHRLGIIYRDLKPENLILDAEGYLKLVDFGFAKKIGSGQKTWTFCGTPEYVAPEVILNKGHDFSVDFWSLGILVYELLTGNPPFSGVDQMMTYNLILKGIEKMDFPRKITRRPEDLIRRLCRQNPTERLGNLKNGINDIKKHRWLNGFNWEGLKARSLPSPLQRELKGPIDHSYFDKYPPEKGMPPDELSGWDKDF
NEK11 (human), sequence (Q8NG66 whole entry, looked up): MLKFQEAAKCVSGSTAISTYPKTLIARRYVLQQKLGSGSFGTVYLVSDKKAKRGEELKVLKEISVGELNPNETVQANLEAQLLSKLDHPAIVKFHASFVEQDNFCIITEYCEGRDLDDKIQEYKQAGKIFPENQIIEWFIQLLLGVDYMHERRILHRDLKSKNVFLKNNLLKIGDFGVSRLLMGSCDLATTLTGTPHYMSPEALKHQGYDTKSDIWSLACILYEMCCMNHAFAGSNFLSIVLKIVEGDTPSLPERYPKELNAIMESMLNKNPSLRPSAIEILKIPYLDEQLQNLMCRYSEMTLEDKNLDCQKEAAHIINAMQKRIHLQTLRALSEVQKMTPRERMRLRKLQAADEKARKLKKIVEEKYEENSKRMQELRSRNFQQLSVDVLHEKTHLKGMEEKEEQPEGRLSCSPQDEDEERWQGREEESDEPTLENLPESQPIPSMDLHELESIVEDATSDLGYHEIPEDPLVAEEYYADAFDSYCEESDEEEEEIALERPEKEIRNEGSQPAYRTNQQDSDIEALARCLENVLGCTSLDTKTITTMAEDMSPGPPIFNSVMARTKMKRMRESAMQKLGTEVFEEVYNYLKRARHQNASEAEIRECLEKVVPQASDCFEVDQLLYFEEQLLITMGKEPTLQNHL
EPHA7 (human), sequence (Q15375 whole entry, looked up): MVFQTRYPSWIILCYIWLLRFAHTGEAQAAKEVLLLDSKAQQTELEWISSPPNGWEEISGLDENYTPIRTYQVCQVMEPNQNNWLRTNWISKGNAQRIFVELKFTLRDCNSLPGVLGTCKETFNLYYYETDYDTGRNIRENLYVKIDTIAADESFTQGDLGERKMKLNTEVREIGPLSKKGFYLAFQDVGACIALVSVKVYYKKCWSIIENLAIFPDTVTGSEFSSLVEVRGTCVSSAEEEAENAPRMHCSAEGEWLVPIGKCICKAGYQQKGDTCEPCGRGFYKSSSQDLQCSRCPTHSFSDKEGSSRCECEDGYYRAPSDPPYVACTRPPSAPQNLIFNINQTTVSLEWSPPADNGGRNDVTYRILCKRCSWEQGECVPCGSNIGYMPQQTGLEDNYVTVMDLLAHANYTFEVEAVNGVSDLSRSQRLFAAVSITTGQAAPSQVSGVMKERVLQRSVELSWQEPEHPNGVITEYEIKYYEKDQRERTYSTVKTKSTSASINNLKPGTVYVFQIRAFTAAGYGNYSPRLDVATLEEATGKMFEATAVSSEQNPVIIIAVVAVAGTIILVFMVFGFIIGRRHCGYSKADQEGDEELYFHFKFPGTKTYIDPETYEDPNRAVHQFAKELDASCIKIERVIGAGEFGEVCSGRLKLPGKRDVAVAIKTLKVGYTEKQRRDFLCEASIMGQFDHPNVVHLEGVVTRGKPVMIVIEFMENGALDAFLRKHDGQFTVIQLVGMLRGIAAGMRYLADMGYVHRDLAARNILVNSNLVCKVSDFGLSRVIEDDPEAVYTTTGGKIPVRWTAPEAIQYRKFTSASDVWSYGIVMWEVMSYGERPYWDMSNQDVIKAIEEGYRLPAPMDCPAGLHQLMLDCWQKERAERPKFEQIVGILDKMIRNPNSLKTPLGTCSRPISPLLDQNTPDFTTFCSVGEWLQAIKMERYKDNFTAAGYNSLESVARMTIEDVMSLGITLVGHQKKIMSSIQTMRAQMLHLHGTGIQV
MATK (human), sequence (P42679 whole entry, looked up): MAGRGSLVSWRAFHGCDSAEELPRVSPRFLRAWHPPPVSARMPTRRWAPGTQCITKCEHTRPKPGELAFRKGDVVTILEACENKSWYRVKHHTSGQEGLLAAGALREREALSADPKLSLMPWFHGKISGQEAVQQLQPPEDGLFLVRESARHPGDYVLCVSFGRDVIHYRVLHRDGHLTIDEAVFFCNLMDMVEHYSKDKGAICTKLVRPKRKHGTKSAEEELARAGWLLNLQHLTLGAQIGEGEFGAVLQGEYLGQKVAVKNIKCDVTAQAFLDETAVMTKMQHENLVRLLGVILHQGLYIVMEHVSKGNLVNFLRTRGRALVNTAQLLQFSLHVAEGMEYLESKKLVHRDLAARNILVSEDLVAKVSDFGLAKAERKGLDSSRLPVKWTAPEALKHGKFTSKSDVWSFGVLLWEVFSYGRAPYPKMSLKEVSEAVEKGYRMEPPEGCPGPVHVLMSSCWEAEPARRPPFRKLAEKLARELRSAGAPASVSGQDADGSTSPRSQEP
NEK7 (human), sequence (Q8TDX7 whole entry, looked up): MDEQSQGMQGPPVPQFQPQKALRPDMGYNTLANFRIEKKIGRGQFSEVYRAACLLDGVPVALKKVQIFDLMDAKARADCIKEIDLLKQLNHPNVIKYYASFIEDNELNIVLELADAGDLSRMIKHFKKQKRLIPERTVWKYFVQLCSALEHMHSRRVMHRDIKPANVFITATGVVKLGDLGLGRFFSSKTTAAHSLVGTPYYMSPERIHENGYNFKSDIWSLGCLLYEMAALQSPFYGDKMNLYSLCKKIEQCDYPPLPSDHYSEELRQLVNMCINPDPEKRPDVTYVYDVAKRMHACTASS

Cc1cc(NC(=O)c2cccc(NC(=O)/C=C/CN(C)C)c2)ccc1Nc1nccc(-c2cccnc2)n1
kinase still bound, per cent of control (DYRK1A (human)): 81% | kinase still bound, per cent of control (FGFR2 (human)): 79% | kinase still bound, per cent of control (MAP2K4 (human)): 70% | kinase still bound, per cent of control (ULK1 (human)): 100% | kinase still bound, per cent of control (MAP3K3 (human)): 95% | kinase still bound, per cent of control (VRK2 (human)): 97% | kinase still bound, per cent of control (AURKA (human)): 100% | kinase still bound, per cent of control (PAK3 (human)): 100% | kinase still bound, per cent of control [1]: 88% | kinase still bound, per cent of control (MAP2K2 (human)): 91% | kinase still bound, per cent of control (PLK1 (human)): 100% | kinase still bound, per cent of control (PTK2B (human)): 87% | kinase still bound, per cent of control (MATK (human)): 81% | kinase still bound, per cent of control (TBK1 (human)): 100% | kinase still bound, per cent of control (GRK1 (human)): 100% | kinase still bound, per cent of control (MTOR (human)): 100% | kinase still bound, per cent of control (CDK16 (human)): 100% | kinase still bound, per cent of control (EPHA3 (human)): 67% | kinase still bound, per cent of control [2]: 81% | kinase still bound, per cent of control (MAP3K7 (human)): 61% | kinase still bound, per cent of control (DCLK2 (human)): 94% | kinase still bound, per cent of control (PRKG1 (human)): 72% | kinase still bound, per cent of control (MAPK6 (human)): 37% | kinase still bound, per cent of control (CDK13 (human)): 100% | kinase still bound, per cent of control (PRKG2 (human)): 97% | kinase still bound, per cent of control (GSK3A (human)): 92% | kinase still bound, per cent of control (TRPM6 (human)): 98% | kinase still bound, per cent of control (MAP4K4 (human)): 92% | kinase still bound, per cent of control (LRRK2 (human)): 50% | kinase still bound, per cent of control (DSTYK (human)): 100% | kinase still bound, per cent of control (NTRK1 (human)): 87% | kinase still bound, per cent of control (NEK11 (human)): 99% | kinase still bound, per cent of control (NEK7 (human)): 100% | kinase still bound, per cent of control [3]: 100% | kinase still bound, per cent of control (CaMK1 (human)): 81% | kinase still bound, per cent of control (EPHA7 (human)): 100% | kinase still bound, per cent of control (CDK7 (human)): 39% | kinase still bound, per cent of control (MARK1 (human)): 100% | kinase still bound, per cent of control (FYN (human)): 78% | kinase still bound, per cent of control (EPHB2 (human)): 100% | kinase still bound, per cent of control (PIK3CA (human)): 100% | kinase still bound, per cent of control (AKT3 (human)): 100% | kinase still bound, per cent of control (CDC42BPB (human)): 68%
